Eleven compounds from patent publication US4570006A, “Amidine compound, process for producing same and anti-complement agent comprising same” (Torii & Co. Ltd., priority 1981, dated 1986) can be followed below.

Each structure is given as a SMILES string. pIC50: −log10 of the molar value. Like-named read-outs stand apart in the source and are kept apart here. Where only a bound is given, the exact number is not on record here.

Assay [1] has as its target Thrombin (Homo sapiens, UniProt P00734). The experiment in a line: biochemical. The note with it: read-out: ID50, thrombin.
Assay [2] has as its target Plasmin (Homo sapiens, UniProt P00747). The experiment in a line: Anti-plasmin activity (inhibition of TAME hydrolysis). The assay is classed as biochemical. The following applies: read-out: ID50, plasmin. The essentials: (§1)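 Inhibition of enzymatic TAME (tosylarginine methyl ester) hydrolysis, per Muramatsu et al. Values are ID50, the molar concentration of compound inhibiting 50% of each enzyme's TAME-hydrolysing activity.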

Assay [3] deals with T1, Clr (Homo sapiens, UniProt P00736).
T1 sequence (P00736 464-705 limits assumed): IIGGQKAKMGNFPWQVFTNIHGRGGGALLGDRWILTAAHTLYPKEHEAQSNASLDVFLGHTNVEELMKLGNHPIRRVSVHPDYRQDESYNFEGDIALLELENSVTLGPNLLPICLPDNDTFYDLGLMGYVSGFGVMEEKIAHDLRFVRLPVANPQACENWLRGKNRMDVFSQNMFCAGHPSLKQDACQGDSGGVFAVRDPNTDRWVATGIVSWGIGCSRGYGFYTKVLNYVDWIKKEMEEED
T1 sequence (P00736 18-463 limits assumed): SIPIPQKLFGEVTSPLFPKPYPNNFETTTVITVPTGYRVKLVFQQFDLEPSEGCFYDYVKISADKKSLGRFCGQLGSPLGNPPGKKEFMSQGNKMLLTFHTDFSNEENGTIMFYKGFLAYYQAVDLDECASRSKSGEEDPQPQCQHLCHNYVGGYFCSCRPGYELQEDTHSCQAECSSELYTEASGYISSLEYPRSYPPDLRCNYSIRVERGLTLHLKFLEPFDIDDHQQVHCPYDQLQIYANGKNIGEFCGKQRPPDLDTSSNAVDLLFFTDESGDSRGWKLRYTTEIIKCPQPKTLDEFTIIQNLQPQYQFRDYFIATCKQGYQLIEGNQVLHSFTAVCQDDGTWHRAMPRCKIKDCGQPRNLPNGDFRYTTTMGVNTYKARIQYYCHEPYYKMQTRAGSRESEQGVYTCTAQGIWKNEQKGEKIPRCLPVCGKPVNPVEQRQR
The experiment in a line: Anti-Cl esterase activity, Clr (AAME hydrolysis). The class given is biochemical. The following applies: hydrolysis of AAME; read-out: Anti-Cl activity, Clr (ID50). On the procedure:
The anti-Cl esterase ([…]) activity was determined according to the method of Okamura et al. [K. Okamura, M. Muramatsu and B. Fujii, Biochem. Biophys.

Assay [4] relates to Kallikrein. The experiment in a line: Anti-kallikrein activity (inhibition of TAME hydrolysis). The note with it: read-out: ID50, kallikrein. The assay is classed as biochemical. The method, boiled down: as §1
Assay [5] has as its target T2, Cls (Homo sapiens, UniProt P09871).
T2 sequence (P09871 438-688 limits assumed): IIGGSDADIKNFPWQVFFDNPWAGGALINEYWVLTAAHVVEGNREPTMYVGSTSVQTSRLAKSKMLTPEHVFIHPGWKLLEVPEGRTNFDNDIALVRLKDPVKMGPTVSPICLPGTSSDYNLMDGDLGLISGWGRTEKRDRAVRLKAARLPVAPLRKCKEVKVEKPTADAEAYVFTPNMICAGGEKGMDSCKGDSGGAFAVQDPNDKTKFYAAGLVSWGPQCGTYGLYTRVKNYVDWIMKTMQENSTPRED
T2 sequence (P09871 16-437 limits assumed): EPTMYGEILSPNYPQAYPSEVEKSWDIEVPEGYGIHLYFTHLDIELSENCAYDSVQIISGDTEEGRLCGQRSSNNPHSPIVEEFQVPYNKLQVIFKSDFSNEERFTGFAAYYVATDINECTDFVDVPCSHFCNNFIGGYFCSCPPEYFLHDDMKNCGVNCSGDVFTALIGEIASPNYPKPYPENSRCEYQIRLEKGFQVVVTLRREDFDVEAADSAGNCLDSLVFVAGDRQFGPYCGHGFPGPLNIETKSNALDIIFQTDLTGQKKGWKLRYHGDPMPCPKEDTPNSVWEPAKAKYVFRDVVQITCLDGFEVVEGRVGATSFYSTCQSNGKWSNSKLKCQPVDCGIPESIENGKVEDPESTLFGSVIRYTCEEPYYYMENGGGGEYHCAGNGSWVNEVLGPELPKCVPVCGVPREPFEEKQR
The experiment in a line: Anti-Cl esterase activity, Cls (ATEE hydrolysis). The class given is biochemical. The note with it: hydrolysis of ATEE; read-out: Anti-Cl activity, Cls (50% inhibition). On the procedure:
The anti-Cl esterase (Clr, Cls) activity was determined according to the method of Okamura et al. [K. Okamura, M. Muramatsu and B. Fujii, Biochem. Biophys. […] The figures in Table 2 have the following meanings:
Cls: Molar concentration of the test compound which inhibits 50% of the ability of Cls to hydrolyse ATEE (acetyltyrosin ethyl ester).

Assay [6] addresses T3, Trypsin (Bos taurus, UniProt P00760).
T3 sequence (P00760 24-246): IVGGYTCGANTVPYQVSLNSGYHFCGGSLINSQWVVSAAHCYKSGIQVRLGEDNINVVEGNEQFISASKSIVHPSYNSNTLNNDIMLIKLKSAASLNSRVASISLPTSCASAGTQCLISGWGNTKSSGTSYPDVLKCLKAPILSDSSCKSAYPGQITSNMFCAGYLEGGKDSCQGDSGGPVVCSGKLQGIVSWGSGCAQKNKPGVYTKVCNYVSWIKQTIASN
Nature of the assay: Anti-trypsin activity (inhibition of TAME hydrolysis). The class given is biochemical. The note with it: read-out: ID50, trypsin. The essentials: as §1

Assay [7] concerns complement. The experiment in a line: Inhibition of complement mediated hemolysis. The assay is classed as cell-based.

Sequence of Plasmin (P00747 581-810 limits assumed, species assumed): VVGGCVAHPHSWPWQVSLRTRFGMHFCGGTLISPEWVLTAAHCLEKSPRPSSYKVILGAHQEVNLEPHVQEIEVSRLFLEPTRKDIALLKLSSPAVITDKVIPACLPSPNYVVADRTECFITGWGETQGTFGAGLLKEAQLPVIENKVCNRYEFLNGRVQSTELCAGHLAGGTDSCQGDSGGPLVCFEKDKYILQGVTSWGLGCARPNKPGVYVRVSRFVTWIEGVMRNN
Sequence of Plasmin (P00747 97-580 limits assumed, species assumed): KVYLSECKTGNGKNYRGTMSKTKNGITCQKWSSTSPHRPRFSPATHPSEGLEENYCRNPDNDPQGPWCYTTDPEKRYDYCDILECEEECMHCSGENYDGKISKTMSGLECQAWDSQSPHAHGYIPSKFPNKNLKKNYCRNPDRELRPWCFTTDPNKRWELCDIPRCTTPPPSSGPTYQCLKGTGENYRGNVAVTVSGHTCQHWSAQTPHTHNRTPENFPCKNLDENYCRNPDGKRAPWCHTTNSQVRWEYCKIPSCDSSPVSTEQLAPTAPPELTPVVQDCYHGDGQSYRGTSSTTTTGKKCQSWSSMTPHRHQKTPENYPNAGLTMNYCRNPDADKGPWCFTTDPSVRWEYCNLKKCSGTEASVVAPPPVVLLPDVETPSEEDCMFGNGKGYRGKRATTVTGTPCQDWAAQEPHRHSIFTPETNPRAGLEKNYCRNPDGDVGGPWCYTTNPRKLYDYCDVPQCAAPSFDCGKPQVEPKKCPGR

`N=C(N)c1ccc(OC(=O)c2ccccc2)c(Cl)c1` [Compound 26, 4-amidino-2-chlorophenyl benzoate]: the pIC50 is 7.22 in assay [1] (TAME hydrolysis); 6.40 in assay [2]; 6.70 in assay [3]; 5.70 in assay [4]; 6.52 in assay [5]; 6.40 in assay [6]. The “Inhibition of complement mediated hemolysis (%)” value (shortened to “Inhibition … (%)”) was 100.0% in assay [7] (compound at 1 × 10^-4), 99.4% in assay [7] (compound at 1 × 10^-5), 61.6% in assay [7] (compound at 1 × 10^-6) and 16.7% in assay [7] (compound at 1 × 10^-7).
For `N=C(N)c1ccc(OC(=O)c2ccccc2)c([N+](=O)[O-])c1` [Compound 27, 4-amidino-2-nitrophenyl benzoate], the pIC50 is 7.00 in assay [1] (TAME hydrolysis); 6.40 in assay [2]; 6.30 in assay [3]; 5.40 in assay [4]; 6.70 in assay [5]; 6.52 in assay [6]. In addition, the “Inhibition … (%)” value in assay [7] (compound at 1 × 10^-4) was found to be 100%; in assay [7] (compound at 1 × 10^-5), 100%; in assay [7] (compound at 1 × 10^-6), 95.5%; in assay [7] (compound at 1 × 10^-7) it was 26.2%.
In the case of `N=C(N)c1ccc(OC(=O)c2ccccc2)c(S(=O)(=O)O)c1` [Compound 28, 5-amidino-2-benzoyloxybenzenesulfonic acid], the pIC50 in assay [1] (TAME hydrolysis) is 5.52; in assay [2], 5.15; in assay [3], < 5.00; in assay [4], < 5.00; in assay [5] it was 5.52; in assay [6] it was 5.00. Further, the “Inhibition … (%)” value came out at 79.1% in assay [7] (compound at 1 × 10^-4), 25.0% in assay [7] (compound at 1 × 10^-5), 22.8% in assay [7] (compound at 1 × 10^-6) and 23.8% in assay [7] (compound at 1 × 10^-7).
With `N=C(N)c1ccc(OC(=O)c2ccccc2)c(C(=O)c2ccccc2)c1` [Compound 29, 4-amidino-2-benzoylphenyl benzoate], the pIC50 in assay [1] (TAME hydrolysis) is 7.52; in assay [2] it was 6.40; in assay [3], 5.52; in assay [4] it was 6.00; in assay [5] it was 6.52; in assay [6], 6.10. For the same compound, the “Inhibition … (%)” value in assay [7] (compound at 1 × 10^-4) came to 98.4%; in assay [7] (compound at 1 × 10^-5), 97.9%; in assay [7] (compound at 1 × 10^-6) it was 67.8%; in assay [7] (compound at 1 × 10^-7), 8.0%.
Regarding `N=C(N)c1ccc(OC(=O)c2ccccc2)c(NC(=O)c2ccccc2)c1` [Compound 30, 4-amidino-2-benzoylaminophenyl benzoate], the pIC50 in assay [1] (TAME hydrolysis) was 7.52; in assay [2], 6.40; in assay [3] it was 6.05; in assay [4] it was 6.70; in assay [5] it was 6.52; in assay [6], 6.52. For the same compound, the “Inhibition … (%)” value in assay [7] (compound at 1 × 10^-4) came out at 100%; in assay [7] (compound at 1 × 10^-5) it was 100%; in assay [7] (compound at 1 × 10^-6), 99.0%; in assay [7] (compound at 1 × 10^-7), 45.3%.
Take `COc1cc(C(=N)N)ccc1OC(=O)/C=C/c1ccccc1` [Compound 31, 4-amidino-2-methoxyphenyl cinnamate]: the pIC50 in assay [1] (TAME hydrolysis) is 4.70; in assay [2] it was 5.52; in assay [3] it was 5.70; in assay [4], 4.40; in assay [5] it was 5.52; in assay [6], 5.10. Also, the “Inhibition … (%)” value in assay [7] (compound at 1 × 10^-4) was determined as 97.2%; in assay [7] (compound at 1 × 10^-5), 80.5%; in assay [7] (compound at 1 × 10^-6), 15.8%; in assay [7] (compound at 1 × 10^-7) it was 1.8%.
For `N=C(N)c1ccc(OC(=O)CCCc2ccccc2)c(C(=O)c2ccccc2)c1` [Compound 33], the pIC50 in assay [1] (TAME hydrolysis), in assay [2], in assay [3], in assay [4], in assay [5] and in assay [6] was < 5.00 each time. The “Inhibition … (%)” value in assay [7] (compound at 1 × 10^-4) was 94.1%; in assay [7] (compound at 1 × 10^-5), 20.4%; in assay [7] (compound at 1 × 10^-6), 0%; in assay [7] (compound at 1 × 10^-7), 0%.
Regarding `N=C(N)c1ccc(OC(=O)C=Cc2ccccc2)c([N+](=O)[O-])c1` [Compound 34], the pIC50 is 5.52 in assay [1]; 5.40 in assay [2]; 5.52 in assay [3]; < 5.00 in assay [4]; 5.52 in assay [5]; 5.40 in assay [6]. The “Inhibition … (%)” value in assay [7] (compound at 1 × 10^-4) amounted to 99.6%; in assay [7] (compound at 1 × 10^-5), 96.7%; in assay [7] (compound at 1 × 10^-6), 53.7%; in assay [7] (compound at 1 × 10^-7) it was 12.4%.
As to `COc1cc(C(=N)N)ccc1OC(=O)c1ccc(C)cc1` [Compound 35], the pIC50 was 5.52 in assay [1] (TAME hydrolysis); 5.30 in assay [2]; 6.40 in assay [3]; < 5.00 in assay [4]; 6.52 in assay [5]; 6.00 in assay [6]. The “Inhibition … (%)” value in assay [7] (compound at 1 × 10^-4) is given as 88.8%; in assay [7] (compound at 1 × 10^-5) it was 43.9%; in assay [7] (compound at 1 × 10^-6), 29.9%; in assay [7] (compound at 1 × 10^-7) it was 11.8%.
Take `Cc1ccc(C(=O)Oc2ccc(C(=N)N)cc2[N+](=O)[O-])cc1` [Compound 37]: the pIC50 is 6.52 in assay [1] (TAME hydrolysis); 6.40 in assay [2]; 7.40 in assay [3]; 6.15 in assay [4]; 7.22 in assay [5]; 7.30 in assay [6]. For the same compound, the “Inhibition … (%)” value in assay [7] (compound at 1 × 10^-4) is listed as 95.9%; in assay [7] (compound at 1 × 10^-5) it was 37.3%; in assay [7] (compound at 1 × 10^-6), 16.0%; in assay [7] (compound at 1 × 10^-7), 0%.
Regarding `CC(C)(C)c1ccc(C(=O)Oc2ccc(C(=N)N)cc2[N+](=O)[O-])cc1` [Compound 38], the pIC50 in assay [1] (TAME hydrolysis) was 6.70; in assay [2], 6.40; in assay [3], 6.52; in assay [4], 6.00; in assay [5], 6.52; in assay [6] it was 7.70. The “Inhibition … (%)” value in assay [7] (compound at 1 × 10^-4) is 98.6%; in assay [7] (compound at 1 × 10^-5), 100%; in assay [7] (compound at 1 × 10^-6) it was 96.1%; in assay [7] (compound at 1 × 10^-7) it was 37.2%.
